Results as given in US20240368122A1, “JAK2 INHIBITORS AND METHODS OF USE THEREOF” (RELAY THERAPEUTICS, INC., priority 2021, published 2024).
Read-outs that look alike come from different tables or passages of the source.

Key:
[1] = system: TF1 JAK2 V617F STAT5 reporter; assay: Cellular TF1 STAT5 assay (luciferase reporter), JAK2 V617F; type: cell-based; details: read-out: Cell PD TF1 V617F STAT5 (IC50)
Experimental: (§1) Selected compounds of the present disclosure were tested in a Cellular TF1 STAT3 or STAT5 assay, to measure the degree of JAK2-mediated STAT3 or STAT5 phosphorylation, respectively. TF1 cells (immortalized erythroleukemia line) expressing either wildtype or V617F mutant JAK2 with a luciferase reporter were used.
(§2) Cell culture: Cells were put into antibiotic selection (1 ug/ml puro+500 ug/ml Geneticin) when first thawed then maintained in growth media without antibiotics. Cells were maintained in exponential growth phase, between 0.02-1 E6 cells/ml.
(§3) Compound preparation: Compounds were screened as 10-point dose response curves 1:3 dilutions. DMSO is used as the vehicle control. All wells were normalized to the same final DMSO concentration. Compounds were pre-spotted onto 384 well plates using an Echo acoustic dispenser, 50 nL of 1000× (10 mM top concentration) DMSO stock/well. Each compound is run in triplicate plates.
(§4) Cell plating: Cells were counted using Vi-Cell XR, then cells were spun down and resuspended in growth media to 200,000 cells/ml. Cells were added to plates containing compound. 10,000 cells/well in 50 ul volume using a Biomek liquid handler. Plates were briefly mixed on a shaker for 1 minute at 2500 rpm then placed in a 37° C., 5% CO2 incubator overnight for 18-20 hrs.
(§5) Measuring luciferase activity: ONE-glo reagent was brought to room temperature, and 25 μL of ONE-glo assay reagent was added to each well using Biomek liquid handler. The plates were incubated for 10 minutes at room temperature, then luminescence was measured on an Envision plate reader.

[2] = molecular target: T1, JAK2 JH2 WT (V536-D812) [W659A, W777A, F794H solubilizing mutations] (Homo sapiens, UniProt O60674, F794H/W659A/W777A); assay: Surface Plasmon Resonance (SPR) binding assay, JAK2 JH2 domain
T1 construct: **JAK2 JH2 WT (V536-D812) [W659A, W777A, F794H solubilizing mutations]; C-thrombin-avi-His6; thrombin cleavage site (C); His6 (C); purchased Biortus
Experimental: Selected compounds of the present disclosure were tested in a Surface Plasmon Resonance (SPR) Assay to measure their binding kinetics and affinity for proteins of interest.
Prepare buffer: 50 mM HEPES pH 7.5, 150 mM NaCl, 0.05% (v/v) Tween, and 10% (v/v) glycerol were combined and pH was adjusted to 7.5, then filtered. 5 mM DTT, was added, and buffer without DMSO was reserved for compound resuspension. 2% (v/v) DMSO was added for assay buffer, and separately 1% DMSO was used to make buffer for resuspending compounds.
Prepare compounds: Using a Bravo liquid handler, 99 μL of 1% (v/v) DMSO assay buffer was added to 1 μL compounds in DMSO.
Run 8K Method: Biotin CAPture (CAP) chip surface was regenerated prior to run by: Inserting CAP chip into Biacore 8K, prime machine with assay buffer with 2% (v/v) DMSO; Setting instrument temperature to 20° C.; Conditioning surface with NaOH/GdnHCl reagents from CAP chip kit (60 seconds, 10 μL/min); and Capturing oligo-Streptavidin (SA) reagent from CAP kit (600 seconds, 1 μL/min), expected capture ˜2500 RU. JAK2 JH1 or JH2 protein was immobilized by preparing a sample of 0.5 uM JH1 or 0.4 uM JH2 protein diluted in assay buffer without DMSO and supplemented with 10 uM of a selected compound of the invention as a stabilizer (370 seconds, 5 uL/min), expected capture ˜1000 RU. Remaining biotin sites on SA were blocked with 1 uM biotin (30 seconds, 20 uL/min), then equilibrated for 1800 seconds at 100 uL/min. Compounds being assayed were run in single cycle kinetics: 4 doses with a top concentration of 5 uM (JH1) or 500 nM (JH2), dilution factor of 3, at 20° C., for a contact time of 60 seconds, and a dissociation time of 300 seconds (JH1) or 1200 seconds (JH2), at a flow rate of 30 uL/min. The surface was completely regenerated after each compound is run, and JH1 or JH2 protein was immobilized fresh prior to each new compound. Data were fitted kinetically with 1:1 binding model using Biacore Insight Evaluation Software.

[3] = system: TF1 JAK2 V617F STAT3 reporter; assay: Cellular TF1 STAT3 assay (luciferase reporter), JAK2 V617F; type: cell-based; details: read-out: Cell PD-TF1 JAK2 V617F STAT3 (IC50)
Experimental: as §1, §2, §3, §4, §5

[4] = Homo sapiens, TF-1, TF1 cells, JAK2 V617F

T1 sequence (O60674 536-812 W659A/W777A/F794H): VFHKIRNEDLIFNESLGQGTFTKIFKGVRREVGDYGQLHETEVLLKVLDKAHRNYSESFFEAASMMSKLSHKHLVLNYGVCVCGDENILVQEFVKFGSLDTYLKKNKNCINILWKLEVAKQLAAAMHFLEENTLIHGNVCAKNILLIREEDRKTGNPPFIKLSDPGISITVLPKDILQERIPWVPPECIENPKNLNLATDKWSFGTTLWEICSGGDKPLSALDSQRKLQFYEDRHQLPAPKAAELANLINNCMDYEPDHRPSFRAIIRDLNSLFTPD

SMILES | IC50 [1, 4] [nM] | Kd [2] [nM] | IC50 [3, 4] [nM] | IC50 ([1]; TF1 JAK2 V617F) [nM] | Kd ([2]; SPR, JAK2 JH2 domain) [nM] | IC50 ([3]; TF1 JAK2 V617F) [nM]
COc1c(Nc2cc(NC(=O)C3CC3)nnc2-c2ncc[nH]2)ccc(C)c1-c1ccc(C(=O)N(C)Cc2cc(C#N)ccn2)nc1 [Compound 371] | 50 to 500 | 0.01 to 10 | 50 to 500 |  |  | 
CNC(=O)c1nnc(NC(=O)C2CC2)cc1Nc1cccc(-c2cnn(C3CN(Cc4ncn(C)n4)C3)c2)c1OC [Compound 104] |  |  |  | 500 to 5000 | 0.01 to 10 | 500 to 5000
CNC(=O)c1nnc(NC(=O)C2CC2)cc1Nc1cccc(-c2cnn(C3CN(Cc4cccc(C(=O)O)n4)C3)c2)c1OC [Compound 312] | 5000 to 100000 | 0.01 to 10 | 5000 to 100000 |  |  | 
CNC(=O)c1nnc(NC(=O)C2CC2)cc1Nc1cccc(-c2ccc(C(=O)N(C)Cc3ccn(C)n3)nn2)c1OC [Compound 76] |  |  |  | 500 to 5000 | 0.01 to 10 | 500 to 5000
CNC(=O)c1nnc(NC(=O)C2CC2)cc1Nc1ccc(Cl)c(-c2ccc(C(=O)N(C)Cc3ccn(C)n3)nc2)c1OC [Compound 223] | 50 to 500 | 0.01 to 10 | 500 to 5000 |  |  | 
CNC(=O)c1nnc(NC(=O)C2CC2)cc1Nc1cccc(-c2ccc(C(=O)N(C)Cc3cc(C#N)cnn3)nc2)c1OC [Compound 332] | 500 to 5000 | 0.01 to 10 | 500 to 5000 |  |  | 
CNC(=O)c1nnc(NC(=O)C2CC2)cc1Nc1cccc(-c2cnn(C3CN(Cc4cccnn4)C3)c2)c1OC [Compound 109] |  |  |  | 50 to 500 | 0.01 to 10 | 50 to 500
CNC(=O)c1nnc(NC(=O)C2CC2)cc1Nc1cccc(-c2cnn(C3CN(Cc4ncc(C)s4)C3)c2)c1OC [Compound 123] |  |  |  | 500 to 5000 | 0.01 to 10 | 500 to 5000
CNC(=O)c1nnc(NC(=O)C2CC2)cc1Nc1cccc(-c2cnn(C3CN(Cc4cccc5nncn45)C3)c2)c1OC [Compound 313] | 500 to 5000 | 10 to 50 | 500 to 5000 |  |  | 
CNC(=O)c1nnc(NC(=O)C2CC2)cc1Nc1ccc(C)c(-c2cn(C3CN(Cc4cccc(C)n4)C3)nn2)c1OC [Compound 269] | 500 to 5000 | 0.01 to 10 | 500 to 5000 |  |  | 
CNC(=O)c1nnc(NC(=O)C2CC2)cc1Nc1cccc(-c2cn(C3CN(Cc4cccc(C#N)n4)C3)nc2C(C)(C)O)c1OC [Compound 339] | 5000 to 100000 | 50 to 500 | 5000 to 100000 |  |  | 
CNC(=O)c1nnc(NC(=O)C2CC2)cc1Nc1cccc(-c2ccc(C(=O)N(C)Cc3cncc(C#N)c3)nc2)c1OC [Compound 188] |  |  |  | 500 to 5000 | 0.01 to 10 | 500 to 5000
CNC(=O)c1nnc(NC(=O)C2CC2)cc1Nc1cccc(-c2cnn(C3CN(Cc4cccc(CO)n4)C3)c2)c1OC [Compound 228] | 50 to 500 | 0.01 to 10 | 50 to 500 |  |  | 
CNC(=O)c1nnc(NC(=O)C2CC2)cc1Nc1cccc(-c2ccc(C(=O)N(C)C[C@H]3CCCC3(F)F)cc2)c1OC (single isomer, unassigned) [Compound 206] | 5000 to 100000 | 10 to 50 | 5000 to 100000 |  |  | 
CNC(=O)c1nnc(NC(=O)C2CC2)cc1Nc1cccc(-c2cnn(C3CN(Cc4cccc(F)c4)C3)c2)c1OC [Compound 91] |  |  |  | 500 to 5000 | 0.01 to 10 | 500 to 5000
CNC(=O)c1nnc(NC(=O)C2CC2)cc1Nc1cccc(-c2cnc(C(=O)NCc3cccn(C)c3=O)cn2)c1OC [Compound 7] |  |  |  | 5000 to 100000 | 0.01 to 10 | 500 to 5000
CNC(=O)c1nnc(NC(=O)C2CC2)cc1Nc1cccc(-c2cnn(C3CN(Cc4cccc(C(=O)N5CCC(F)(F)C5)n4)C3)c2)c1OC [Compound 357] | 10 to 50 | 0.01 to 10 | 50 to 500 |  |  | 

SMILES | IC50 [1, 4] [nM] | Kd [2] [nM] | IC50 [3, 4] [nM] | IC50 ([1]; TF1 JAK2 V617F) [nM] | Kd ([2]; SPR, JAK2 JH2 domain) [nM] | IC50 ([3]; TF1 JAK2 V617F) [nM]
CNC(=O)c1nnc(NC(=O)C2CC2)cc1Nc1cccc(-c2cc(C3CN(Cc4cccc(C#N)n4)C3)nn2C)c1OC [Compound 191] |  |  |  | 5000 to 100000 | 10 to 50 | 5000 to 100000
CNC(=O)c1nnc(NC(=O)C2CC2)cc1Nc1cccc(-c2cnc(C3CN(Cc4cccc(C#N)n4)C3)nc2)c1OC [Compound 305] | 500 to 5000 | 0.01 to 10 | 500 to 5000 |  |  | 
CNC(=O)c1nnc(NC(=O)C2CC2)cc1Nc1cccc(-c2ccc(C(=O)N(C)Cc3csc(C)n3)nc2)c1OC [Compound 174] |  |  |  | 50 to 500 | 0.01 to 10 | 50 to 500
CNC(=O)c1nnc(NC(=O)C2CC2)cc1Nc1cccc(-c2cnn([C@H]3C[C@H]([C@@H](O)c4ccccn4)C3)c2)c1OC (single isomer, unassigned) [Compound 396] | 500 to 5000 |  | 500 to 5000 |  | 0.01 to 10 | 
CNC(=O)c1nnc(NC(=O)C2CC2)cc1Nc1cccc(-c2cnc(C(=O)N(C)Cc3nn(C)cc3Br)nc2)c1OC [Compound 56] |  |  |  | 50 to 500 | 0.01 to 10 | 50 to 500
CNC(=O)c1nnc(NC(=O)C2CC2)cc1Nc1ccc(C)c(-c2ccc(C(=O)N(C)Cc3cn(C)nc3C)cn2)c1OC [Compound 278] | 500 to 5000 | 0.01 to 10 | 500 to 5000 |  |  | 
CNC(=O)c1nnc(NC(=O)C2CC2)cc1Nc1cccc(-c2ccc(C(=O)N(C)Cc3ncc(COC)s3)cc2)c1OC [Compound 316] | 500 to 5000 | 0.01 to 10 | 500 to 5000 |  |  | 
CNC(=O)c1nnc(NC(=O)C2CC2)cc1Nc1cccc(C(=O)N[C@@H](C)C2CN(Cc3ccccn3)C2)c1OC (single isomer, unassigned) [Compound 245] | 5000 to 100000 | 50 to 500 | 5000 to 100000 |  |  | 
CNC(=O)c1nnc(NC(=O)C2CC2)cc1Nc1cccc(-c2cnn(C3CN(Cc4cccc(C(=O)N5CCCC5)n4)C3)c2)c1OC [Compound 356] | 10 to 50 | 0.01 to 10 | 10 to 50 |  |  | 
CNC(=O)c1nnc(NC(=O)C2CC2)cc1Nc1cccc(-c2cnn(C3CN(Cc4cscn4)C3)c2)c1OC [Compound 124] |  |  |  | 50 to 500 | 0.01 to 10 | 50 to 500
CNC(=O)c1nnc(NC(=O)C2CC2)cc1Nc1cccc(-c2cn(C3CN(Cc4ccccn4)C3)nc2C(F)F)c1OC [Compound 165] |  |  |  | 500 to 5000 | 0.01 to 10 | 500 to 5000
CNC(=O)c1nnc(NC(=O)C2CC2)cc1Nc1cccc(-c2cc(C3CN(Cc4cnn(C)c4)C3)nn2C)c1OC [Compound 175] |  |  |  | 5000 to 100000 | 0.01 to 10 | 5000 to 100000
CNC(=O)c1nnc(NC(=O)C2CC2)cc1Nc1cccc(-c2cnc(C3CN(Cc4cccc5ncnn45)C3)nc2)c1OC [Compound 327] | 5000 to 100000 | 0.01 to 10 | 5000 to 100000 |  |  | 
CNC(=O)c1nnc(NC(=O)C2CC2)cc1Nc1cccc(-c2cnn(C3CN(Cc4cccc(C(=O)N(C)C)n4)C3)c2)c1OC [Compound 275] | 10 to 50 | 0.01 to 10 | 10 to 50 |  |  | 
CNC(=O)c1nnc(NC(=O)C2CC2)cc1Nc1cccc(-c2cnn(C3CN(Cc4cccc(C(C)=O)n4)[C@H]3C)c2)c1OC (stereo partly drawn) [Compound 377] | 500 to 5000 | 0.01 to 10 | 500 to 5000 |  |  | 
COc1c(Nc2cc(NC(=O)C3CC3)nn3cc(C)nc23)ccc(C)c1-c1ccc(C(=O)N(C)Cc2cn(C)nc2C)nc1 [Compound 262] | 5000 to 100000 | 0.01 to 10 | 500 to 5000 |  |  | 
